PMC9405973, “Altered Conformational Landscape upon Sensing Guanine Nucleotides in a Disease Mutant of Elongation Factor-like 1 (EFL1) GTPase” (Biomolecules, 2022)

Target: T1, Efl1 R1086Q in complex with Sdo1 and 60S subunits (Saccharomyces cerevisiae, UniProt P53893, R1086Q)
T1 construct: made in house; host or cells: Efl1: Saccharomyces cerevisiae; Sdo1: Escherichia coli C41; 60S subunits purified from S. cerevisiae strain JD1370
T1 sequence (P53893 1-1110 R1086Q): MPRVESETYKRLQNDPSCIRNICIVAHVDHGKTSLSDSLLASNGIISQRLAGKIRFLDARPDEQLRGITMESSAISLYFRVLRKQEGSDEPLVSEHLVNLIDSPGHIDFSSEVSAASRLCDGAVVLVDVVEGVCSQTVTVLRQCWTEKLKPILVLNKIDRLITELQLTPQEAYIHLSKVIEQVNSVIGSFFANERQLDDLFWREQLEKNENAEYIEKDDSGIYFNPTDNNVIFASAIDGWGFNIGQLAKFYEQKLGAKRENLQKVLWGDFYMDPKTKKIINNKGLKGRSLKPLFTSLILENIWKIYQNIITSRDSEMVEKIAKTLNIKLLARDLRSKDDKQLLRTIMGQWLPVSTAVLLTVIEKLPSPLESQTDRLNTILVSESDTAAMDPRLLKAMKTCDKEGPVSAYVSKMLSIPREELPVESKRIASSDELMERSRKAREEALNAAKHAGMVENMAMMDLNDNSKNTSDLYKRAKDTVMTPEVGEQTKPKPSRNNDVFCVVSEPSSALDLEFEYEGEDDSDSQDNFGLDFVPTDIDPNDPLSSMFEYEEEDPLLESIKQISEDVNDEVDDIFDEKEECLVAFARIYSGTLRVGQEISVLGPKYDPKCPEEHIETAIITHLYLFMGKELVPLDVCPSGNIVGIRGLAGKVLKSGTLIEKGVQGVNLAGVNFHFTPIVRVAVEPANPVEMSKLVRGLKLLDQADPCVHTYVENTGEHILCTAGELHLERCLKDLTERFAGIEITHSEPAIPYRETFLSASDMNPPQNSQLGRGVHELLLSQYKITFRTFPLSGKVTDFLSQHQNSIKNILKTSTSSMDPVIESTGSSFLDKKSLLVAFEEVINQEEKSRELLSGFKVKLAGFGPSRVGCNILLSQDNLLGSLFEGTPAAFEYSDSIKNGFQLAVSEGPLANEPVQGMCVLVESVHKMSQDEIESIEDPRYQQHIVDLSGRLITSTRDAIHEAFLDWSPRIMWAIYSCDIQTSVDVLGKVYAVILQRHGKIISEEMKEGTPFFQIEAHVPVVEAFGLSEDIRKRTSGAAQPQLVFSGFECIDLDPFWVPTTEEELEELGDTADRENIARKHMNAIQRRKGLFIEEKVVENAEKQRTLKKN
T1 sequence (Q07953 1-250 partner): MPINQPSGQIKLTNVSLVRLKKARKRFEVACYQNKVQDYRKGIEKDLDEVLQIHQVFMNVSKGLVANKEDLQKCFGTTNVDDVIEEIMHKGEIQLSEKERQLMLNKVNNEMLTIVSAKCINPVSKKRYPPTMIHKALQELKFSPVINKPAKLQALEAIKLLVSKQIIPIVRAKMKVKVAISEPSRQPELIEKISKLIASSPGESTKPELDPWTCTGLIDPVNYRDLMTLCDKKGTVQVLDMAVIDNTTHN
Assay: Steady state fluorescence binding of mant-GTP to Efl1 R1086Q in complex with Sdo1 and 60S subunits
Settings: 25 °C, one-binding-site model; read-out: dissociation constant (Kd)
Protocol: We measured the binding of different Efl1 constructs present in complex with Sdo1 and 60S subunits to the fluorescence GTP analogue, mant-GTP, by following the increase in the fluorescence signal after excitation at 355 nm. Fluorescence intensities were plotted as a function of increasing nucleotide concentrations, and the dissociation constant (Kd) was calculated by fitting the data to a one-binding-site model (Supplementary Figure S1B).
Hydrolysis of GTP was measured using the Enzchek Phosphate Assay kit (Molecular Probes) as described by Webb. Standard reactions consisted of 100 µL containing 6 µM of Efl1 R1086Q and Efl1 L910K, 0.3 mM MESG, 1.0 U purine nucleoside phosphorylase (PNP) and the indicated amounts of GTP. […]
Reactions were initiated and the GTPase was added after 3 min. Time courses were followed by recording the change in absorbance at 360 nm in a Cary 60 UV -Vis spectrophotometer (Agilent Technologies). Background absorbance was recorded prior to the addition of the GTPase and subtracted from the sample signals. The slope of the measured time courses corresponded to the GTP hydrolysis rate. […] Data were analysed by nonlinear regression to the M ichaelis-Menten equation with the program Origin Version 5.0 (OriginLab, Co., Northampton, MA). […]
Steady state fluorescence measurements […]
Maximum emission at 440 nm was replotted as a function of nucleotide concentration and analysed

CNc1ccccc1C(=O)O[C@H]1[C@@H](O)[C@H](n2cnc3c(=O)[nH]c(N)nc32)O[C@@H]1COP(=O)(O)OP(=O)(O)OP(=O)(O)O [mant-GTP]
Kd: 32 µM
